Series [1] concerns Venezuelan equine encephalitis virus (TC-83 vaccine strain). Also on record: species or system C3H/HeN mice. The note with it: in vivo.
For series [2], the system named is Avian influenza A strain H5N1 virus. The series is classed as cell-based.
Series [3] concerns flu A (DUCK)-H5N1 virus. The series is classed as cell-based, Avian influenza A H5N1.
The subject of series [4] is CTP synthase. The note with it: cited from earlier work.
The conditions of series [5]: mouse, in vivo.
The subject of series [6] is Venezuelan Equine Encephalitis (VEE). The class given is cell-based, Venezuelan equine encephalitis virus.

The text below walks through data of patent US8242120B2 (priority 2007, dated 2012).

“Also recorded” adds a separate entry of the source.

For `Nc1ccn([C@@H]2C[C@H](CO)[C@@H](O)[C@H]2O)c(=O)n1` [(−) carbodine, (1R,2S,3R,4R)-1-[2,3-Dihydroxy-4-(hydroxymethyl)-cyclopentan-1-yl]cytosine], in series [1], the “activity against vaccine strain (TC-83) of VEEV in C3H/HeN mouse model” value was “active”. Also, in series [1] (mouse), the “all disease signs measured” value is recorded as “effective in significantly improving”, the “mean day to death” value is on record as “efficacious in significantly improving; also recorded: effective in significantly improving”, the “reduction in brain virus titer” value is listed as 1 log and the survival entry is recorded as “efficacious in significantly improving; also recorded: effective in significantly improving”. The weight gain result in series [1] (mouse) is listed as “efficacious in significantly improving; also recorded: effective in significantly improving”. Further, the “activity as an inhibitor of Avian Influenza A strain H5N1” value in series [2] is reported as “good activity”. Moreover, the “activity against H5N1 in vitro” value in series [3] is on record as “good activity”. For the same compound, in series [4], the “inhibition of CTP synthase that converts UTP to CTP” value is listed as “known inhibitor”. Also, the “weight loss in sham infected mice” value in series [5] was “weight loss was observed”. The “activity against VEE in vitro” value in series [6] was “good activity”.
